From patent publication US20260306485A1, “COMPOSITIONS AND METHODS FOR THE TREATMENT OF CONGENITAL ADRENAL HYPERPLASIA” (CRINETICS PHARMACEUTICALS, INC., priority 2023, published 2026)

Columns and labels:
Assay type in all cases: in vivo, human
[1] = tested on: serum A4/testosterone (male/men); experiment: Phase 2 CAH study, Cohort 1 initial analysis: morning serum A4/testosterone, male participants; conditions: 80 mg QD oral, n=1; for A4/T ratio in the patient: baseline 0.3, normal <0.2
Description: (§1) Up to approximately 30 participants will be enrolled in the study. Each cohort will enroll at least 6 participants, with a possible expansion of up to an additional 6 participants in cohorts 1 and 2, to a maximum of 12 evaluable participants in those cohorts. The treatment duration will be up to Day 84 (12 Weeks) per participant. The total study duration will be up to 140 days (up to 4 weeks of screening, 12 weeks of treatment, and 4 weeks of follow-up) per participant. The visit frequency will be at Screening (2 visits), on Day 1 (Baseline), and at Weeks 2 (Day 14), 6 (Day 42), and 12 (Day 84). A Safety Follow-up Visit will occur 2 weeks following the last dose of CRN04894 (Week 14; Day 98), and a telephone call to collect any adverse events (AEs) will occur at 4 weeks after the last dose of CRN04894 (Week 16, Day 112). The study design is discussed in detail below.
(§2) Participants in all cohorts will continue their preexisting glucocorticoid replacement dosing regimens/doses throughout the study. In addition, starting the night of Day 1 and ending the night before the Week 12/end of treatment (EOT) visit, each cohort will administer CRN04894 between 22:00-24:00 (at approximately the same time each night) once daily (QD) before sleep.
(§3) Participants in Cohort 1 will receive 80 mg of CRN04894 QD. After at least 3 participants have completed 2 weeks of dosing with 80 mg of CRN04894 QD in Cohort 1, an interim analysis evaluating PD, PK, efficacy, and safety will be reviewed by the Safety Review Committee (SRC). If it is safe to continue, the SRC will recommend dosing of 120 mg of CRN04894 in Cohort 2. However, the SRC can recommend a lower dose (i.e., 40 mg of CRN04894 QD) in Cohort 2 based on review of safety data. The SRC also has the option to recommend increasing enrollment up to a total of 12 participants each in Cohorts 1 and/or 2. In this situation, expanded enrollment in the cohort will be completed, and data from the expanded cohort will be reviewed by the SRC prior to enrollment in the subsequent cohort.
(§4) A pharmacodynamic biomarker panel will be drawn. The biomarker panel will include the following: • 17-hydroxyprogesterone (17-OHP); • Adrenocorticotropic hormone (ACTH) (plasma); • Testosterone; • Androstenedione (A4); • Dehydroepiandrosterone (DHEA); • Dehydroepiandrosterone sulfate (DHEA-S); • 11-deoxycorticosterone (11-DOC); • 21-deoxycortisol; • 11β-hydroxyandrostenedione (11-OHA4); • 11-ketoandrostenedione (11-ketoA4); • 11β-hydroxytestosterone (11-OHT); • 11-ketotestosterone (11-ketoT); • Aldosterone; and • Renin.
(§5) Visits 2-7: Prior to receiving the morning GC replacement dose, a total of 2 blood draws (approximately 1 hour apart) for PD biomarkers will be drawn. The drawing of the PD biomarkers should be one of the first visit activities performed at the start of the visit. Visits should start as early in the morning as possible (preferably 07:00-08:00), so as to minimize any delay in administration of the morning GC dose and the timing of each study visit should be as consistent as possible. The second set of PD biomarkers should be drawn no later than 11:00 am.
(§6) The initial analysis summarizes the data of four participates (n=4) of Cohort 1 who received 80 mg of CRN04894 QD. There were three female/women participants (n=3) and one male/men participant (n=1).
(§7) Cohort 1 initial analysis of % changes in values from baseline of morning serum A4, morning serum 17-OHP, morning serum testosterone in females, morning serum testosterone in males, and morning serum A4/testosterone in males are presented in Table 4 below. These changes from baseline are also depicted in FIG. 1, FIG. 2, FIG. 4, FIG. 5, and FIG. 10, respectively.
(§8) Patients (aged ≥18 to 75, ≥16 years in USA) with classical CAH on a stable dose of glucocorticoid replacement for at least six months were enrolled and received 80 mg once daily, oral CRN04894 for 12 weeks followed by a four-week washout. […]

[2] = tested on: serum 17-hydroxyprogesterone (17-OHP); experiment: Phase 2 CAH study, Cohort 1 initial analysis: morning serum 17-hydroxyprogesterone (17-OHP); conditions: 80 mg QD oral; for 17-OHP reduction (mean±SD): baseline 4740 to 6905 ng/dL
Description: The secondary efficacy objective is to evaluate the efficacy of CRN04894, measured by the change from baseline in serum 17-hydroxyprogesterone (17-OHP), with the secondary efficacy endpoint being the change from baseline in the morning (before 11:00 AM) serum 17-OHP at week 12.
as §1, §2, §3, §4, §5, §6
as §7, with “respectively. […]” for “respectively.”

[3] = tested on: serum androstenedione (A4); experiment: Phase 2 CAH study, Cohort 1 initial analysis: morning serum androstenedione (A4); conditions: 80 mg QD oral; for A4 reduction (mean±SD): morning, baseline 116 to 604 ng/dL
Description: The primary efficacy objective is to evaluate the efficacy of CRN04894, measured by the change from baseline in serum androstenedione (A4), with the primary efficacy endpoint being the change from baseline in the morning (before 11:00 AM) serum A4 at week 12.
as §1, §2, §3, §4, §5, §6
as §7, with “respectively. […]” for “respectively.”

[4] = tested on: serum testosterone (male/men); experiment: Phase 2 CAH study, Cohort 1 initial analysis: morning serum testosterone, male participants; conditions: 80 mg QD oral, n=1
Description: as §1, §2, §3, §4
(§9) Visits 2-7: Prior to receiving the morning GC replacement dose, a total of 2 blood draws (approximately 1 hour apart) for PD biomarkers will be drawn. […]

[5] = tested on: plasma adrenocorticotropic hormone (ACTH); experiment: Phase 2 CAH study, Cohort 1 initial analysis: morning plasma ACTH; conditions: 80 mg QD oral; for variation in ACTH levels during treatment: morning, baseline 155 to 1009 pg/mL
Description: as §1, §2, §3, §4, §9

[6] = tested on: serum testosterone (female/women); experiment: Phase 2 CAH study, Cohort 1 initial analysis: morning serum testosterone, female participants; conditions: 80 mg QD oral; for testosterone reduction (mean±SD), female participants: morning, baseline 114 ng/dL
Description: as §1, §2, §3, §4, §5, §6, §7, §8

[7] = Phase 2 CAH study, Cohort 1 initial analysis: menstruation; conditions: 80 mg QD oral; three female participants in cohort
Description: as §1, §2
Participants in Cohort 1 will receive 80 mg of CRN04894 QD. […]

CCOc1ccccc1-c1ccc(N2CCN(C(=O)C3(C(F)(F)F)CCC3)C[C@H]2CC)c(C(=O)N[C@@H]2CN3CCC2CC3)n1 [CRN04894, N-[(3S)-1-Azabicyclo[2.2.2]octan-3-yl]-6-(2-ethoxyphenyl)-3-[(2R)-2-ethyl-4-[1-(trifluoromethyl)cyclobutanecarbonyl]-piperazin-1-yl]pyridine-2-carboxamide]
% Change in morning A4/testosterone (male/men) ([1]; Mean, Week 2): −73% | % Change in morning A4/testosterone (male/men) ([1]; Mean, Week 6): −79% | % Change in morning A4/testosterone (male/men) ([1]; Median, Week 2): −73% | % Change in morning A4/testosterone (male/men) ([1]; Median, Week 6): −79% | A4/T ratio in the patient ([1]; week 2): 0.08 | A4/T ratio in the patient ([1]; week 6): 0.06 | % Change in morning 17-OHP ([2]; Mean, Week 2, n=4): −96% | % Change in morning 17-OHP ([2]; Mean, Week 6, n=4): −97% | % Change in morning 17-OHP ([2]; Mean, Week 12, n=2): −83% | % Change in morning 17-OHP ([2]; Median, Week 2, n=4): −96% | % Change in morning 17-OHP ([2]; Median, Week 6, n=4): −97% | % Change in morning 17-OHP ([2]; Median, Week 12, n=2): −83% | 17-OHP reduction (mean±SD) ([2]; Week 2, n=4): 96%±2% | 17-OHP reduction (mean±SD) ([2]; Week 6, n=4): 97%±0.3% | 17-OHP reduction (mean±SD) ([2]; Week 12, n=2): 83%±22% | 17-OHP reduction, onset and maintenance ([2]; all participants): rapid and profound 17-OHP reduction within two weeks, which were maintained for the duration of therapy | % Change in morning serum A4 ([3]; Mean, Week 2, n=4): −86% | % Change in morning serum A4 ([3]; Mean, Week 6, n=4): −90% | % Change in morning serum A4 ([3]; Mean, Week 12, n=2): −88% | % Change in morning serum A4 ([3]; Median, Week 2, n=4): −88% | % Change in morning serum A4 ([3]; Median, Week 6, n=4): −94% | % Change in morning serum A4 ([3]; Median, Week 12, n=2): −88% | A4 reduction (mean±SD) ([3]; Week 2, n=4): 86%±10% | A4 reduction (mean±SD) ([3]; Week 6, n=4): 90%±9% | A4 reduction (mean±SD) ([3]; Week 12, n=2): 88%±15% | A4 reduction, onset and maintenance ([3]; all participants): rapid and profound A4 reduction within two weeks, which were maintained for the duration of therapy | A4 levels relative to upper limit of normal ([3]; all visits following treatment, normal 30-200 ng/dL females, 40-150 ng/dL males): all A4 levels ending below the upper limit of normal (<ULN) at all visits following treatment | % Change in morning testosterone (male/men) ([4]; Mean, Week 2): 9% | % Change in morning testosterone (male/men) ([4]; Mean, Week 6): 11% | % Change in morning testosterone (male/men) ([4]; Median, Week 2): 9% | % Change in morning testosterone (male/men) ([4]; Median, Week 6): 11% | ACTH levels, trend during treatment ([5]; in words): Modest variations in ACTH levels without a consistent directional trend | variation in ACTH levels during treatment ([5]; Week 2, n=4): −25%±57% | variation in ACTH levels during treatment ([5]; Week 6, n=4): 51%±87% | variation in ACTH levels during treatment ([5]; Week 12, n=2): −13%±67% | % Change in morning testosterone (female/women) ([6]; Mean, Week 2, n=3): −61% | % Change in morning testosterone (female/women) ([6]; Mean, Week 6, n=3): −65% | % Change in morning testosterone (female/women) ([6]; Mean, Week 12, n=2): −97% | % Change in morning testosterone (female/women) ([6]; Median, Week 2, n=3): −86% | % Change in morning testosterone (female/women) ([6]; Median, Week 6, n=3): −96% | % Change in morning testosterone (female/women) ([6]; Median, Week 12, n=2): −97% | testosterone reduction (mean±SD), female participants ([6]; Week 2, n=3): 61%±53% | testosterone reduction (mean±SD), female participants ([6]; Week 6, n=3): 65%±56% | testosterone reduction (mean±SD), female participants ([6]; Week 12, n=2): 97%±1% | menstruation in female participants [7]: Two female participants in this cohort menstruated for the first time in over 2 years
